How the values were obtained:
[1] = system: cupgrass, woolly; assay: Test C preemergence; type: in vivo, Eriochloa villosa; details: for Plant response rating (scale of 0 to 100), Cupgrass, Woolly: Preemergence, 250 g ai/ha
Text: (§1) Seeds of plant species selected from blackgrass (Alopecurus myosuroides), ryegrass, Italian (Italian ryegrass, Lolium multiflorum), wheat (winter wheat, Triticum aestivum), galium (catchweed bedstraw, Galium aparine), corn (Zea mays), crabgrass, large (large crabgrass, Digitaria sanguinalis), foxtail, giant (giant foxtail, Setaria faberii), johnsongrass (Sorghum halepense), lambsquarters (Chenopodium album), morningglory (Ipomoea coccinea), nutsedge, yellow (yellow nutsedge, Cyperus esculentus), pigweed (redroot pigweed, Amaranthus retroflexus), ragweed (common ragweed, Ambrosia elation), soybean (Glycine max), barnyardgrass (Echinochloa crus-galli), oilseed rape (Brassica napus), waterhemp (common waterhemp, Amaranthus rudis), oat, wild (wild oat, Avena fatua), kochia (Kochia scoparia), Surinam grass (Brachiaria decumbens), foxtail, green (green foxtail, Setaria viridis), goosegrass (Eleusine indica), bromegrass, downy (downy bromegrass, Bromus tectorum), nightshade (eastern black nightshade, Solanum ptycanthum), cocklebur (common cocklebur, Xanthium strumarium), cupgrass, woolly (woolly cupgrass, Eriochloa villosa), bermudagrass (Cynodon dactylon), sunflower, (common oilseed sunflower, Helianthus annuus), Russian thistle (Salsola kali), and velvetleaf (Abutilon theophrasti) were planted into a blend of loam soil and sand and treated preemergence with test chemicals formulated in a non-phytotoxic solvent mixture which included a surfactant.
(§2) At the same time, plants selected from these crop and weed species and also chickweed (common chickweed, Stellaria media), canarygrass (littleseed canarygrass, Phalaris minor), and deadnettle (henbit deadnettle, Lamium amplexicaule), were planted in pots containing Redi-Earth® planting medium (Scotts Company, 14111 Scottslawn Road, Marysville, Ohio 43041) comprising spaghnum peat moss, vermiculite, wetting agent and starter nutrients and treated with postemergence applications of test chemicals formulated in the same manner. Plants ranged in height from 2 to 18 cm (1- to 4-leaf stage) for postemergence treatments. Treated plants and controls were maintained in a greenhouse for 13 to 15 days, after which time all species were compared to controls and visually evaluated. Plant response ratings, summarized in Table C, are based on a scale of 0 to 100 where 0 is no effect and 100 is complete control. A dash (-) response means no test result.

[2] = system: bromegrass, downy; assay: Test C postemergence; type: in vivo, Bromus tectorum; details: for Bromegrass, Downy plant response rating: scale 0 to 100
Text: as §1, §2

[3] = system: barley; assay: Test C postemergence; type: in vivo, Hordeum vulgare; details: scale 0 to 100, 0 no effect, 100 complete control
[4] = system: bermudagrass; assay: Test C postemergence; type: in vivo, Cynodon dactylon; details: for Bermudagrass plant response rating: scale 0 to 100
Text: as §1, §2

[5] = system: canarygrass; assay: Test C postemergence; type: in vivo, Phalaris minor; details: for Canarygrass plant response rating: scale 0 to 100
Text: as §1, §2

[6] = system: southern sandbur; assay: Test F preemergence; type: in vivo, Cenchrus echinatus
Text: (§3) Seeds of plant species selected from corn (Zea mays), soybean (Glycine max), velvetleaf (Abutilon theophrasti), lambsquarters (Chenopodium album), wild poinsettia (Euphorbia heterophylla), pigweed, palmer (palmer pigweed, Amaranthus palmeri), common waterhemp (Amaranthus rudis), surinam grass (Brachiaria decumbens), large crabgrass (Digitaria sanguinalis), crabgrass, Brazil (Brazilian crabgrass, Digitaria horizontalis), fall panicum (Panicum dichotomiflorum), giant foxtail (Setaria faberii), green foxtail (Setaria viridis), goosegrass (Eleusine indica), johnsongrass (Sorghum halepense), common ragweed (Ambrosia elation), barnyardgrass (Echinochloa crus-galli), southern sandbur (Cenchrus echinatus), arrowleaf sida (Sida rhombifolia), Italian ryegrass (Lolium multiflorum), dayflower, VA (Virginia (VA) dayflower, Commelina virginica), field bindweed (Convolvulus arvensis), cocklebur (common cocklebur, Xanthium strumarium), morningglory (Ipomoea coccinea), nightshade (eastern black nightshade, Solanum ptycanthum), kochia (Kochia scoparia), yellow nutsedge (Cyperus esculentus), and hairy beggarticks (Bidens pilosa), were planted into a silt loam soil and treated preemergence with test chemicals formulated in a non-phytotoxic solvent mixture which included a surfactant.
(§4) At the same time, plants from these crop and weed species and also horseweed (Canada horseweed, Conyza canadensis), smartweed (ladysthumb smartweed, Polygonum persicaria), waterhemp_RES1, (ALS & Triazine resistant common waterhemp, Amaranthus rudis), and waterhemp_RES2, (ALS & HPPD resistant common waterhemp, Amaranthus rudis) were treated with postemergence applications of test chemicals formulated in the same manner. Plants ranged in height from 2 to 18 cm for postemergence treatments (1- to 4-leaf stage). Treated plants and controls were maintained in a greenhouse for 14 to 21 days, after which time all species were compared to controls and visually evaluated. Plant response ratings, summarized in Table F, are based on a scale of 0 to 100 where 0 is no effect and 100 is complete control. A dash (-) response means no test result.

[7] = system: field bindweed; assay: Test F preemergence; type: in vivo, Convolvulus arvensis
Text: as §3, §4

[8] = system: yellow nutsedge; assay: Test F preemergence; type: in vivo, Cyperus esculentus
Text: as §3, §4

[9] = preemergence, 31 g ai/ha, scale 0 to 100 (0 no effect, 100 complete control), 13 to 15 days
[10] = preemergence, 125 g ai/ha, scale 0 to 100, 0 is no effect, 100 is complete control
[11] = postemergence, 250 g ai/ha, scale 0 to 100 (0 no effect, 100 complete control)
[12] = postemergence, 125 g ai/ha, scale 0 to 100, 0 no effect, 100 complete control
[13] = postemergence, 62 g ai/ha, scale 0 to 100, 0 no effect, 100 complete control
[14] = Preemergence, 31 g ai/ha, scale 0 to 100
[15] = Preemergence, 62 g ai/ha, scale 0 to 100
[16] = Preemergence, 125 g ai/ha, scale 0 to 100
[17] = preemergence, 8 g ai/ha, scale 0 to 100, 100 is complete control
[18] = preemergence, 16 g ai/ha, scale 0 to 100, 100 is complete control
[19] = Preemergence, 250 g ai/ha, scale 0 to 100

| SMILES | Bromegrass, Downy plant response rating ([2]; Postemergence, 31 g ai/ha) | Plant response rating, Bromegrass, Downy [2, 11] | Plant response rating, Bromegrass, Downy [2, 12] | Bermudagrass plant response rating ([4]; Postemergence, 31 g ai/ha) | Plant response rating, Bermudagrass [4, 11] | Plant response rating, Bermudagrass [4, 12] | Canarygrass plant response rating ([5]; Postemergence, 31 g ai/ha) | Plant response rating, Canarygrass [5, 11] | Plant response rating, Canarygrass [5, 12] | Plant response rating, Southern Sandbur [6, 15] | Plant response rating, Southern Sandbur [6, 16] | Plant response rating, Field Bindweed [7, 15] | Plant response rating, Field Bindweed [7, 16] | Plant response rating, Yellow Nutsedge [8, 15] | Plant response rating, Yellow Nutsedge [8, 16] | other results |
| --- | --- | --- | --- | --- | --- | --- | --- | --- | --- | --- | --- | --- | --- | --- | --- | --- |
| Cc1cc(C(=O)NCC(F)(F)F)nn1Cc1ccnc(C(F)(F)F)c1 [Compound 74] | 0 | 0 | 0 | 5 | 5 | 5 | 0 | 5 | 0 | – | – | – | – | – | – | Plant response rating (scale of 0 to 100), Cupgrass, Woolly [1]: 98; Cupgrass, Woolly plant response rating [1, 9]: 65; Cupgrass, Woolly plant response rating [1, 10]: 98; Bromegrass, Downy plant response rating ([2]; postemergence, 62 g ai/ha): 0; Plant response rating, Barley ([3]; 125 g ai/ha): 0; Bermudagrass plant response rating ([4]; postemergence, 62 g ai/ha): 5; Canarygrass plant response rating ([5]; postemergence, 62 g ai/ha): 0 |
| CCCNC(=O)c1cc(CC)n(Cc2cccc(OC(F)(F)F)c2)n1 [Compound 27] | 0 | 10 | 5 | 0 | 25 | 5 | 5 | 10 | 10 | – | – | – | – | – | – | Plant response rating, Bromegrass, Downy [2, 13]: 5; Plant response rating, Barley ([3]; 62 g ai/ha): 20; Plant response rating, Bermudagrass [4, 13]: 5; Plant response rating, Canarygrass [5, 13]: 5 |
| CCONC(=O)c1cc(CC)n(Cc2cccc(OC(F)(F)F)c2)n1 [Compound 72] | 5 | 15 | 15 | 0 | 20 | 15 | 5 | 30 | 20 | – | – | – | – | – | – | Plant response rating (scale of 0 to 100), Cupgrass, Woolly [1]: 65; Cupgrass, Woolly plant response rating [1, 9]: 10; Plant response rating, Cupgrass, Woolly ([1]; preemergence, 62 g ai/ha, 13 to 15 days, scale 0 to 100, 0 = no effect, 100 = complete control): 45; Cupgrass, Woolly plant response rating [1, 10]: 45; Bromegrass, Downy plant response rating ([2]; postemergence, 62 g ai/ha): 5; Plant response rating, Barley ([3]; 125 g ai/ha): 5; Bermudagrass plant response rating ([4]; postemergence, 62 g ai/ha): 0; Canarygrass plant response rating ([5]; postemergence, 62 g ai/ha): 10 |
| CCc1cc(C(=O)NCC(F)(F)F)nn1Cc1cccc(OC(F)(F)F)c1 [Compound 20] | 0 | 10 | 5 | 5 | 45 | 15 | 5 | 15 | 15 | – | – | – | – | – | – | Plant response rating, Bromegrass, Downy [2, 13]: 0; Plant response rating, Barley ([3]; 62 g ai/ha): 20; Plant response rating, Bermudagrass [4, 13]: 5; Plant response rating, Canarygrass [5, 13]: 10 |
| CCc1cc(-c2ccc(C(F)(F)F)cc2)nn1Cc1ccnc(C(F)(F)F)c1 [Compound 110] | – | – | – | – | – | – | – | – | – | 35 | 75 | 50 | 90 | 0 | 0 | Plant response rating, Southern Sandbur [6, 14]: 20; Plant response rating, Southern Sandbur [6, 17]: 0; Plant response rating, Southern Sandbur [6, 18]: 20; Plant response rating, Field Bindweed [7, 14]: 30; Plant response rating, Field Bindweed [7, 17]: 0; Plant response rating, Field Bindweed [7, 18]: 10; Plant response rating, Yellow Nutsedge [8, 14]: 0; Plant response rating, Yellow Nutsedge [8, 17]: 0; Plant response rating, Yellow Nutsedge [8, 18]: 0 |
| CCc1cc(C(=O)NCC(F)(F)F)nn1Cc1ccnc(Br)c1 [Compound 224] | – | – | – | – | – | – | – | – | – | 5 | 35 | 65 | 90 | 0 | 35 | Plant response rating, Southern Sandbur [6, 19]: 15; Plant response rating, Field Bindweed [7, 19]: 90; Plant response rating, Yellow Nutsedge [8, 19]: 35 |
| CCCc1cc(C(=O)NC(C)C)nn1Cc1cc(C(F)(F)F)nn1C [Compound 201] | – | – | – | – | – | – | – | – | – | 0 | 30 | 20 | 75 | 0 | 0 | Plant response rating, Southern Sandbur [6, 19]: 75; Plant response rating, Southern Sandbur [6, 18]: 0; Plant response rating, Field Bindweed ([7]; Preemergence, 16 g ai/ha, scale 0 to 100): 15; Plant response rating, Field Bindweed [7, 19]: 100; Plant response rating, Field Bindweed [7, 18]: 0; Plant response rating, Yellow Nutsedge [8, 19]: 25; Plant response rating, Yellow Nutsedge [8, 18]: 0 |

Reference: patent US20150105252A1, “SUBSTITUTED PYRAZOLES AS HERBICIDES” (E I DU PONT DE NEMOURS AND COMPANY, priority 2013, published 2015)
